In the supplement of paper PMC4977894:
Where a name gives a salt, the structure may show the parent alone. ± gives the standard deviation of the averaged measurements.

What was measured:
[1] = test system: Homo sapiens (human subject panel, olfactory perception); assay: perceived odor familiarity rating (rating 0-100); higher = more familiar
Protocol: (§1)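 Human olfactory psychophysics. 55 healthy subjects (after excluding 6 low performers) sniffed 1 mL of each odorant diluted in paraffin oil (vials, two dilutions per molecule, 20 molecules presented twice). Each subject rated intensity, pleasantness and familiarity on a 0-100 slider, starting at 50 and required to move. Ratings were given only when the subject reported detecting a smell; per-subject ratings are averaged over subjects.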

[2] = test system: Homo sapiens (human subject panel, olfactory perception); assay: perceived odor pleasantness rating (rating 0-100); higher = more pleasant
Protocol: as §1

[3] = test system: Homo sapiens (human subject panel, olfactory perception); assay: perceived odor intensity rating (rating 0-100); higher = stronger perceived smell
Protocol: as §1

[4] = odor dilution in paraffin oil: 1/10
[5] = odor dilution in paraffin oil: 1/1,000
[6] = odor dilution in paraffin oil: 1/100,000
[7] = odor dilution in paraffin oil: 1/10,000,000

Row | SMILES | perceived odor familiarity rating [1, 4] | perceived odor familiarity rating [1, 5] | perceived odor pleasantness rating [2, 4] | perceived odor pleasantness rating [2, 5] | perceived odor intensity rating [3, 4] | perceived odor intensity rating [3, 5] | perceived odor familiarity rating [1, 6] | perceived odor pleasantness rating [2, 6] | perceived odor intensity rating [3, 6] | perceived odor familiarity rating [1, 7] | perceived odor pleasantness rating [2, 7] | perceived odor intensity rating [3, 7]
1 | OC1CSC(O)CS1 (stereo unspecified) [2,5-Dihydroxy-1,4-dithiane] | 50.9 ± 35 | 51.5 ± 32 | 16.9 ± 25 | 13.8 ± 22 | 86.4 ± 16 | 88.4 ± 16 | – | – | – | – | – | –
2 | COC1=C(C)OC(C)C1=O (stereo unspecified) [2,5-Dimethyl-4-methoxy-3(2H)-furanone] | – | 45.4 ± 33 | – | 26 ± 19 | – | 74.8 ± 24 | 44.1 ± 28 | 28.2 ± 23 | 56.3 ± 31 | – | – | –
3 | Cc1ccc(C)[nH]1 [2,5-Dimethylpyrrole] | – | 62 ± 28 | – | 53 ± 27 | – | 71.4 ± 23 | 48 ± 31 | 48.2 ± 26 | 50.6 ± 30 | – | – | –
4 | Cc1cnc(C)cn1 [2,5-dimethyl pyrazine] | – | – | – | – | – | – | 43.8 ± 30 | 38.5 ± 21 | 50.3 ± 30 | 37.1 ± 28 | 48.4 ± 24 | 29.3 ± 31
5 | Cc1cccc(C)n1 [2,6-Dimethylpyridine] | – | 47.3 ± 32 | – | 29.8 ± 24 | – | 78.1 ± 20 | 42.5 ± 31 | 35.3 ± 23 | 54.1 ± 32 | – | – | –
6 | CCC(C)c1nccs1 (stereo unspecified) [2-(1-Methylpropyl)thiazole] | – | 41.3 ± 32 | – | 25.7 ± 25 | – | 83.9 ± 17 | 43.9 ± 31 | 31.8 ± 23 | 55.6 ± 31 | – | – | –
7 | CSCCO [2-(Methylthio)ethanol] | – | 53.8 ± 34 | – | 34.1 ± 31 | – | 77.7 ± 23 | 37.4 ± 31 | 40 ± 18 | 32.3 ± 29 | – | – | –
8 | CC(=O)c1ncc(C)nc1C [2-Acetyl-3,5(6)-dimethylpyrazine] | – | 58.6 ± 36 | – | 31.5 ± 32 | – | 85.4 ± 17 | 58.1 ± 31 | 49.4 ± 29 | 65.1 ± 26 | – | – | –
9 | CCc1nccnc1C(C)=O [2-Acetyl-3-ethylpyrazine] | – | 57.2 ± 29 | – | 25.7 ± 23 | – | 79.4 ± 20 | 52.4 ± 30 | 41.2 ± 23 | 46.3 ± 30 | – | – | –
10 | CC(=O)c1ccc(C)o1 [2-Acetyl-5-methylfuran] | – | 38.2 ± 28 | – | 36.5 ± 25 | – | 71.5 ± 22 | 38.2 ± 29 | 47.4 ± 27 | 25.2 ± 31 | – | – | –
11 | CC(=O)c1nccs1 [2-Acetylthiazole] | – | 69.3 ± 28 | – | 46.3 ± 31 | – | 80 ± 20 | 58.3 ± 31 | 47.7 ± 30 | 76.3 ± 17 | – | – | –
12 | CC(=O)c1cccs1 [2-Acetylthiophene] | – | – | – | – | – | – | 42.4 ± 30 | 46 ± 23 | 43.9 ± 29 | 44.9 ± 30 | 52.4 ± 25 | 25.3 ± 28
13 | CC(=O)c1ccccc1N [2-Aminoacetophenone] | – | 54.8 ± 30 | – | 57.5 ± 27 | – | 71.9 ± 24 | 52.7 ± 30 | 58.4 ± 26 | 66.7 ± 27 | – | – | –
14 | CCOc1nccs1 [2-Ethoxythiazole] | – | 45.2 ± 30 | – | 24.3 ± 23 | – | 79.9 ± 19 | 42.5 ± 28 | 37.6 ± 25 | 52.7 ± 30 | – | – | –
15 | CCc1nccnc1C [2-Ethyl-3-methylpyrazine] | – | 55.7 ± 32 | – | 31.2 ± 26 | – | 82.1 ± 17 | 60 ± 31 | 43.9 ± 29 | 70.5 ± 21 | – | – | –
16 | CCc1nc(C)cs1 [2-Ethyl-4-methylthiazole] | – | 43.6 ± 30 | – | 16.6 ± 19 | – | 87 ± 15 | 45.6 ± 29 | 33.6 ± 24 | 73.1 ± 21 | – | – | –
17 | CCC1(O)C2(C)CCC(C2)C1(C)C (stereo unspecified) [2-Ethylfenchol] | – | 58.9 ± 33 | – | 37.2 ± 27 | – | 73.6 ± 27 | 47.7 ± 35 | 45.5 ± 25 | 39.1 ± 34 | – | – | –
18 | CCc1ccco1 [2-Ethylfuran] | – | 45.4 ± 31 | – | 34.4 ± 24 | – | 52.4 ± 31 | 31.4 ± 29 | 38.3 ± 30 | 42.2 ± 35 | – | – | –
19 | CCCCC(CC)C(=O)O (stereo unspecified) [2-Ethylhexanoic acid] | 46.6 ± 29 | 47.7 ± 28 | 28.4 ± 21 | 38.1 ± 22 | 73.7 ± 23 | 47.8 ± 31 | – | – | – | – | – | –
20 | O=CSCc1ccco1 [2-Furanmethanethiol formate] | – | – | – | – | – | – | 54.5 ± 36 | 21.5 ± 23 | 87.3 ± 14 | 58.5 ± 35 | 24.3 ± 28 | 86.9 ± 14
21 | CC(=O)c1ccccc1O [2-Hydroxyacetophenone] | – | 49.6 ± 33 | – | 29.5 ± 25 | – | 80.7 ± 17 | 43.8 ± 29 | 39.2 ± 24 | 48.5 ± 30 | – | – | –
22 | CC(C)Cc1nccs1 [2-Isobutylthiazole] | – | – | – | – | – | – | 46.3 ± 29 | 41.4 ± 26 | 61.3 ± 26 | 32.4 ± 31 | 46.4 ± 23 | 31.2 ± 31
23 | CC(C)c1ccccc1O [2-Isopropylphenol] | – | 49 ± 34 | – | 28.8 ± 22 | – | 84.3 ± 14 | 36 ± 29 | 44.4 ± 20 | 38.8 ± 30 | – | – | –
24 | CC(O)C(C)S (stereo unspecified) [2-Mercapto-3-butanol] | – | – | – | – | – | – | 41.6 ± 32 | 40 ± 26 | 45.9 ± 32 | 37 ± 26 | 50.2 ± 23 | 30.2 ± 30
25 | COc1cncc(C(C)C)n1 [2-Methoxy-3(5 or 6)-isopropylpyrazine] | – | 50 ± 32 | – | 27.3 ± 26 | – | 80.8 ± 23 | 45.3 ± 28 | 33.3 ± 22 | 58 ± 30 | – | – | –
26 | COc1nccnc1C [2-Methoxy-3-methylpyrazine] | – | 63 ± 31 | – | 34.3 ± 34 | – | 87.9 ± 13 | 64.6 ± 31 | 52.6 ± 31 | 79.5 ± 17 | – | – | –
